Assay results: US8017612B2, “Piperazine compound and use thereof as a HCV polymerase inhibitor” (priority 2006, dated 2011)

Assays:
[1] = target: T1, HCV polymerase (NS5B) type 1b (Hepatitis C virus genotype 1b, UniProt P26663); test: Assay of enzyme (HCV polymerase) inhibitory activity, type 1b enzyme; type: biochemical, HCV BK strain (type 1b); conditions: HCV polymerase inhibitory activity IC50, 1b, type 1b enzyme
T1 construct: a region encoding NS5B (J Virol 1991 March, 65(3), 1105-13, 544 amino acids after deletion of 47 amino acids on the C-terminal); 6xHis (C); made in house; host or cells: Escherichia coli
In short: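 Rxn: NS5B 1b (BK, ΔC47, His6) 0.5 μg/ml; substrate RNA 5 μg/ml; ATP/GTP/CTP 50 μM, UTP 2 μM + [5,6-3H]UTP; 20 mM Tris pH 7.5, 5 mM MgCl2, 50 mM NaCl, 1 mM EDTA/DTT. 25 °C, 60 min. Stop with TCA/pyrophosphate, filter, scintillation count; IC50 vs. untreated.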

[2] = target: T2, HCV polymerase (NS5B) type 1a (Hepatitis C virus genotype 1a, UniProt P26664); test: Assay of enzyme (HCV polymerase) inhibitory activity, type 1a enzyme; type: biochemical, HCV type 1a (cloned from the blood of patients); conditions: HCV polymerase inhibitory activity IC50, 1a, type 1a enzyme
T2 construct: made in house; host or cells: Escherichia coli (by the 'similar method' of the 1b enzyme)
In short: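 NS5B Δ47 C-term His6 (type 1a, 1.5 μg/ml); substrate RNA 5 μg/ml; ATP/GTP/CTP 50 μM, UTP 2 μM + [5,6-3H]UTP; Tris pH 7.5, MgCl2 5 mM; 25° C, 60 min. TCA/pyrophosphate stop, GF/B filter, scintillation. IC50 vs no-compound control.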

| SMILES | IC50 [1] [nM] | IC50 [2] [nM] |
| --- | --- | --- |
| O=C(NCc1ccc(OC(F)(F)F)cc1)[C@H]1CN(c2nc3nc(C(F)(F)F)ncc3s2)CCN1S(=O)(=O)c1ccc(C(F)(F)F)cc1 [Example 981, (R)-1-(4-trifluoromethyl-benzenesulfonyl)-4-(5-trifluoromethyl-thiazolo[4,5-d]pyrimidin-2-yl)-piperazine-2-carboxylic acid 4-trifluoromethoxy-benzylamide] | < 100 | < 100 |
| Cc1nc(N)c2sc(N3CCN(S(=O)(=O)c4ccc(OC(F)(F)F)cc4)[C@@H](C(=O)NCc4ccc(OC(F)(F)F)cc4)C3)nc2n1 [Example 982, (R)-4-(7-amino-5-methyl-thiazolo[4,5-d]pyrimidin-2-yl)-1-(4-trifluoromethoxy-benzenesulfonyl)-piperazine-2-carboxylic acid 4-trifluoromethoxy-benzylamide] | < 100 | < 100 |
| O=C(NCc1ccc(OC(F)(F)F)cc1)[C@H]1CN(c2nc3nc(C4CC4)ncc3s2)CCN1S(=O)(=O)c1ccc(C(F)(F)F)cc1 [Example 983, (R)-4-(5-cyclopropyl-thiazolo[4,5-d]pyrimidin-2-yl)-1-(4-trifluoromethyl-benzenesulfonyl)-piperazine-2-carboxylic acid 4-trifluoromethoxy-benzylamide] | < 100 | < 100 |
| CC(C)c1ncc2sc(N3CCN(S(=O)(=O)c4ccc(OC(F)(F)F)cc4)[C@@H](C(=O)NCc4ccc(OC(F)(F)F)cc4)C3)nc2n1 [Example 984, (R)-4-(5-isopropyl-thiazolo[4,5-d]pyrimidin-2-yl)-1-(4-trifluoromethoxy-benzenesulfonyl)-piperazine-2-carboxylic acid 4-trifluoromethoxy-benzylamide] | < 100 | < 100 |
| O=C(NCc1ccc(OC(F)(F)F)cc1)[C@H]1CN(c2nc3c(Cl)nncc3s2)CCN1S(=O)(=O)c1ccc(OC(F)(F)F)cc1 [Example 985, (R)-4-(4-chloro-thiazolo[4,5-d]pyridazin-2-yl)-1-(4-trifluoromethoxy-benzenesulfonyl)-piperazine-2-carboxylic acid 4-trifluoromethoxy-benzylamide] | < 100 | < 100 |
| Cc1nnc2sc(N3CCN(S(=O)(=O)c4ccc(OC(F)(F)F)cc4)[C@@H](C(=O)NCc4ccc(OC(F)(F)F)cc4)C3)nn2c1=O [Example 986, (R)-4-(3-methyl-4-oxo-4H-[1,3,4]thiadiazolo[2,3-c][1,2,4]triazin-7-yl)-1-(4-trifluoromethoxy-benzenesulfonyl)-piperazine-2-carboxylic acid 4-trifluoromethoxy-benzylamide] | < 100 | < 100 |
| O=C(NCc1ccc(OC(F)(F)F)cc1)[C@H]1CN(c2nc3nnncc3s2)CCN1S(=O)(=O)c1ccc(OC(F)(F)F)cc1 [Example 987, (R)-4-thiazolo[4,5-d][1,2,3]triazin-6-yl-1-(4-trifluoromethoxy-benzenesulfonyl)-piperazine-2-carboxylic acid 4-trifluoromethoxy-benzylamide] | < 100 | < 100 |
| O=C(CC(=O)N1CCN(S(=O)(=O)c2ccc(OC(F)(F)F)cc2)[C@@H](C(=O)NCc2ccc(OC(F)(F)F)cc2)C1)Nc1nnc(Br)s1 [Example 988, (R)-4-[2-(5-bromo-[1,3,4]thiadiazol-2-ylcarbamoyl)-acetyl]-1-(4-trifluoromethoxy-benzenesulfonyl)-piperazine-2-carboxylic acid 4-trifluoromethoxy-benzylamide] | > 1000 | > 1000 |
| O=C(NCc1cc2ccccn2c1)[C@H]1CN(c2nc3ncncc3s2)CCN1S(=O)(=O)c1ccc(OC(F)(F)F)cc1 [Example 989, (R)-4-thiazolo[4,5-d]pyrimidin-2-yl-1-(4-trifluoromethoxy-benzenesulfonyl)-piperazine-2-carboxylic acid (indolizin-2-ylmethyl)-amide] | < 100 | < 100 |
| CNC(=O)c1cc(=O)nc2sc(N3CCN(S(=O)(=O)c4ccc(OC(F)(F)F)cc4)[C@@H](C(=O)NCc4ccc(OC(F)(F)F)cc4)C3)nn12 [Example 990, 7-oxo-2-[(R)-4-(4-trifluoromethoxy-benzenesulfonyl)-3-(4-trifluoromethoxy-benzylcarbamoyl)-piperazin-1-yl]-7H-[1,3,4]thiadiazolo[3,2-a]pyrimidine-5-carboxylic acid methylamide] | < 100 | < 100 |
| CC(C)c1ncc2sc(N3CCN(S(=O)(=O)c4ccc(C(F)(F)F)cc4)[C@@H](C(=O)NCc4ccc(OC(F)(F)F)cc4)C3)nc2n1 [Example 991, (R)-4-(5-isopropyl-thiazolo[4,5-d]pyrimidin-2-yl)-1-(4-trifluoromethyl-benzenesulfonyl)-piperazine-2-carboxylic acid 4-trifluoromethoxy-benzylamide] | < 100 | < 100 |
| O=C(NCc1ccc(OC(F)(F)F)cc1)[C@H]1CN(c2nc3nc(CC4CC4)ncc3s2)CCN1S(=O)(=O)c1ccc(OC(F)(F)F)cc1 [Example 992, (R)-4-(5-cyclopropylmethyl-thiazolo[4,5-d]pyrimidin-2-yl)-1-(4-trifluoromethoxy-benzenesulfonyl)-piperazine-2-carboxylic acid 4-trifluoromethoxy-benzylamide] | < 100 | < 100 |
| CCN(CC)c1nc2nc(Cl)nc(N3CCN(S(=O)(=O)c4ccc(OC(F)(F)F)cc4)[C@@H](C(=O)NCc4ccc(OC(F)(F)F)cc4)C3)c2s1 [Example 993, (R)-4-(5-chloro-2-diethylamino-thiazolo[4,5-d]pyrimidin-7-yl)-1-(4-trifluoromethoxy-benzenesulfonyl)-piperazine-2-carboxylic acid 4-trifluoromethoxy-benzylamide] | > 1000 | > 1000 |
| CC(C)(O)C#Cc1ncc2sc(N3CCN(S(=O)(=O)c4ccc(OC(F)(F)F)cc4)[C@@H](C(=O)NCc4ccc(OC(F)(F)F)cc4)C3)nc2n1 [Example 994, (R)-4-[5-(3-hydroxy-3-methyl-but-1-ynyl)-thiazolo[4,5-d]pyrimidin-2-yl]-1-(4-trifluoromethoxy-benzenesulfonyl)-piperazine-2-carboxylic acid 4-trifluoromethoxy-benzylamide] | < 100 | < 100 |
| C#Cc1ncc2sc(N3CCN(S(=O)(=O)c4ccc(OC(F)(F)F)cc4)[C@@H](C(=O)NCc4ccc(OC(F)(F)F)cc4)C3)nc2n1 [Example 995, (R)-4-(5-ethynyl-thiazolo[4,5-d]pyrimidin-2-yl)-1-(4-trifluoromethoxy-benzenesulfonyl)-piperazine-2-carboxylic acid 4-trifluoromethoxy-benzylamide] | < 100 | < 100 |
| O=C(NCc1ccc(S(F)(F)(F)(F)F)cc1)[C@H]1CN(c2nc3ncncc3s2)CCN1S(=O)(=O)c1ccc(OC(F)(F)F)cc1 [Example 996, (R)-4-thiazolo[4,5-d]pyrimidin-2-yl-1-(4-trifluoromethoxy-benzenesulfonyl)-piperazine-2-carboxylic acid 4-pentafluorosulfanyl-benzylamide] | < 100 | < 100 |
| O=C(NCc1ccc(OC(F)F)cc1F)[C@H]1CN(c2nc3nc(Cl)ncc3s2)CCN1S(=O)(=O)c1ccc(OC(F)(F)F)cc1 [Example 997, (R)-4-(5-chloro-thiazolo[4,5-d]pyrimidin-2-yl)-1-(4-trifluoromethoxy-benzenesulfonyl)-piperazine-2-carboxylic acid 4-difluoromethoxy-2-fluoro-benzylamide] | < 100 | < 100 |
